Where two headings read alike, the source gives them in different places.
Tests used:
[1] = molecular target: T1, recombinant BRD4 BD2 (Homo sapiens, UniProt O60885); test: Competitive fluorescence-polarization (FP) binding assay, BRD4 BD2
T1 construct: for recombinant BRD4 BD1 and BRD4 BD2 proteins
Protocol: (§1) Fluorescence Polarization (FP) competitive binding studies were carried out using a FAM labeled fluorescent probe, see, e.g., Cpd. No. 350 of US 2014/0256706, to determine binding affinities of representative Compounds of the Disclosure for recombinant BRD4 BD1 and BRD4 BD2 proteins. Equilibrium dissociation constants (Kd) values of the fluorescent probe to BRD4 BD1 and BD2 proteins were determined from protein saturation experiments by monitoring the total fluorescence polarization of mixtures composed with the fluorescent probe at a fixed concentration and proteins with increasing concentrations up to full saturation. Serial dilutions of testing proteins were mixed with the fluorescent probe to a final volume of 200 μl in the assay buffer (100 mM phosphate buffer, pH=6.5, 0.01% Triton X-100 (Sigma, 282103) being added right before assays). Final fluorescent probe concentration was 1.5 nM for both proteins. Plates were incubated at room temperature for 30 minutes with gentle shaking to assure equilibrium. FP values in millipolarization units (mP) were measured using the Infinite M-1000 plate reader (Tecan U.S., Research Triangle Park, N.C.) in Microfluor 1 96-well, black, round-bottom plates (Thermo Scientific, Waltham, Mass.) at an excitation wavelength of 485 nm and an emission wavelength of 530 nm. Kd values of the fluorescent probe, which were calculated by fitting the sigmoidal dose-dependent FP increases as a function of protein concentrations using Graphpad Prism 6.0 software (Graphpad Software, San Diego, Calif.), are 5.5 and 3.0 nM to BDR4 BD1 and 2, respectively.
(§2) The IC50 and Ki values of compounds were determined in a competitive binding experiment. See US 2014/0256706. Mixtures of 10 μl of the tested compounds in assay buffer with 40% Ethylene Glycol and 190 μl of preincubated protein/probe complex solution in the assay buffer (100 mM potassium phosphate, pH 6.5, 0.01% Triton X-100) were added into assay plates which were incubated at room temperature for 30 minutes with gentle shaking. Final concentrations of proteins were 10 and 6 nM in assays for BRD4 BD1 and BD2, respectively. Final probe concentration is 1.5 nM in both assays. Negative controls containing protein/probe complex only (equivalent to 0% inhibition), and positive controls containing only free probes (equivalent to 100% inhibition), were included in each assay plate. FP values were measured as described above. IC50 values were determined by nonlinear regression fitting of the competition curves. Instead of being calculated from IC50 values as described before. Ki values of competitive inhibitors were obtained directly by nonlinear regression fitting as well, based upon the Kd values of the probe to different proteins, and concentrations of the proteins and probes in the competitive assays (US 2014/0256706; Wang, FEBS Lett. 360:111 (1995); Zhang et al., Analytical Biochemistry, 331:138 (2004)).
(§3) Representative compounds in Table 5 were evaluated for their binding affinities to BRD4 BD1 and BD2 proteins using the Competitive Fluorescence-Polarization (FP) Assays described in Example 6, with the data included in Table 6.

[2] = system: MDA-MB-231; test: Cell growth inhibition, 4-day proliferation assay, MDA-MB-231; format: cell-based; conditions: Homo sapiens
How it was run: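 WST-8 colorimetric read-out (absorbance 450 nm after 1-2 h) after 4-day compound exposure of 3,000-10,000 cells/well at 37 °C; IC50 from variable-slope sigmoid fit of DMSO-normalized signal.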

[3] = molecular target: T2, recombinant BRD4 BD1 (Homo sapiens, UniProt O60885); test: Competitive fluorescence-polarization (FP) binding assay, BRD4 BD1
T2 construct: for recombinant BRD4 BD1 and BRD4 BD2 proteins
Protocol: as §1, §2, §3

[4] = system: MOLM-13; test: Cell growth inhibition, 4-day proliferation assay, MOLM-13; format: cell-based; conditions: Homo sapiens
[5] = Plasma exposure after oral gavage in mice, LC-MS/MS; format: in vivo; conditions: mouse, in vivo, po, 25 mg/kg
Protocol: For a number of representative compounds in Table 5, their plasma exposures with oral administration in mice via oral gavage were determined by LC-MS/MS, with the data shown in Table 9.

[6] = competitive FP, Table 6, read-out: IC50 as determinined in FP assays BRD4 BD2
[7] = MDA-MB-231, WST-8 assay, Table 7, read-out: Cell growth inhibition (IC50 (nM)) MDA-MB-231
[8] = competitive FP, Table 6, read-out: IC50 as determinined in FP assays BRD4 BD1
[9] = MOLM-13, WST-8 assay, Table 7, read-out: Cell growth inhibition (IC50 (nM)) MOLM-13
[10] = MOLM-13, 96 h, read-out: Cell IC50 (nM) MOLM13

Work on `Cc1c(C#Cc2cnn(CCC(N)=O)c2)sc2c1C(c1ccc(Cl)cc1)=N[C@@H](C)c1nnc(C)n1-2` [Compound 103, (S)-3-(4-((4-(4-chlorophenyl)-3,6,9-trimethyl-6H-thieno[3,2-f][1,2,4]triazolo[4,3-a][1,4]diazepin-2-yl)ethynyl)-1H-pyrazol-1-yl)propanamide] yielded an IC50 [1] of 15.4 nM, an IC50 ([2]; MDA-MB-231, read-out: Cell growth inhibition (IC50 (nM)) MDA-MB-231) of 60 ± 20 nM and an IC50 [3] of 4 nM.

For `CNC(=O)CCn1cc(C#Cc2sc3c(c2C)C(c2ccc(Cl)cc2)=N[C@@H](C)c2nnc(C)n2-3)cn1` [Compound 104, (S)-3-(4-((4-(4-chlorophenyl)-3,6,9-trimethyl-6H-thieno[3,2-f][1,2,4]triazolo[4,3-a][1,4]diazepin-2-yl)ethynyl)-1H-pyrazol-1-yl)-N-methylpropanamide], the IC50 [1, 6] was 45.1 nM, the IC50 [2, 7] was 40 ± 10 nM and the IC50 [3, 8] was 4.9 nM.

With `Cc1c(C#Cc2ccccn2)sc2c1C(c1ccc(Cl)cc1)=N[C@@H](CC(C)C)c1nnc(C)n1-2` [Compound 105, (S)-4-(4-chlorophenyl)-6-isobutyl-3,9-dimethyl-2-(pyridin-2-ylethynyl)-6H-thieno[3,2-f][1,2,4]triazolo[4,3-a][1,4]diazepine] the IC50 [4, 9] was 348 nM, the IC50 [1, 6] was 26.5 nM and the IC50 [2, 7] was 400 ± 200 nM. For the same compound, the IC50 [3, 8] was 33.9 nM.

Compound `Cc1c(C#Cc2cccnc2)sc2c1C(c1ccc(Cl)cc1)=N[C@@H](CC(=O)OC(C)(C)C)c1nnc(C)n1-2` [Compound 111, tert-butyl (S)-2-(4-(4-chlorophenyl)-3,9-dimethyl-2-(pyridin-3-ylethynyl)-6H-thieno[3,2-f][1,2,4]triazolo[4,3-a][1,4]diazepin-6-yl)acetate] has an IC50 [4, 9] of 32.7 nM, an IC50 [1, 6] of 17 nM and an IC50 [2, 7] of 98.6 nM. The IC50 [3, 8] was 4.8 nM.

With `Cc1c(C#Cc2cccnc2)sc2c1C(c1ccc(Cl)cc1)=N[C@@H](CC(=O)O)c1nnc(C)n1-2` [Compound 112, (S)-2-(4-(4-chlorophenyl)-3,9-dimethyl-2-(pyridin-3-ylethynyl)-6H-thieno[3,2-f][1,2,4]triazolo[4,3-a][1,4]diazepin-6-yl)acetic acid] the IC50 [4, 9] was 644 nM, the IC50 [1, 6] was 23 nM and the IC50 [2, 7] was 1860 nM. The IC50 [3, 8] was 86.2 nM.

For `Cc1c(C#Cc2cccnc2)sc2c1C(c1ccc(Cl)cc1)=N[C@@H](CC(N)=O)c1nnc(C)n1-2` [Compound 113, (S)-2-(4-(4-chlorophenyl)-3,9-dimethyl-2-(pyridin-3-ylethynyl)-6H-thieno[3,2-f][1,2,4]triazolo[4,3-a][1,4]diazepin-6-yl)acetamide], the IC50 [4, 9] was 2.7 nM, the IC50 [1, 6] was 11.4 nM and the IC50 [2, 7] was 23.9 nM. For the same compound, the IC50 [3, 8] was 4.1 nM.

With `CCNC(=O)C[C@@H]1N=C(c2ccc(Cl)cc2)c2c(sc(C#Cc3cccnc3)c2C)-n2c(C)nnc21` [Compound 114, (S)-2-(4-(4-chlorophenyl)-3,9-dimethyl-2-(pyridin-3-ylethynyl)-6H-thieno[3,2-f][1,2,4]triazolo[4,3-a][1,4]diazepin-6-yl)-N-ethylacetamide] the IC50 [4, 9] was 13.8 nM, the IC50 [1, 6] was 4.7 nM and the IC50 [2, 7] was 39.4 nM. For the same compound, the IC50 [3, 8] was 8.2 nM.

With `Cc1c(C#Cc2cccnc2)sc2c1C(c1ccc(Cl)cc1)=N[C@@H](CC(=O)N1CCN(C)CC1)c1nnc(C)n1-2` [Compound 115, (S)-2-(4-(4-chlorophenyl)-3,9-dimethyl-2-(pyridin-3-ylethynyl)-6H-thieno[3,2-f][1,2,4]triazolo[4,3-a][1,4]diazepin-6-yl)-1-(4-methylpiperazin-1-yl)ethan-1-one] the IC50 [4, 9] was 21.9 nM, the IC50 [1, 6] was 6.3 nM and the IC50 [2, 7] was 65.1 nM. It also gave an IC50 [3, 8] of 9.6 nM.

`Cc1c(C#Cc2cccnc2)sc2c1C(c1ccc(Cl)cc1)=N[C@@H](CC(=O)N1CCNCC1)c1nnc(C)n1-2` [Compound 116, (S)-2-(4-(4-chlorophenyl)-3,9-dimethyl-2-(pyridin-3-ylethynyl)-6H-thieno[3,2-f][1,2,4]triazolo[4,3-a][1,4]diazepin-6-yl)-1-(piperazin-1-yl)ethan-1-one] showed an IC50 [4, 9] of 17.3 nM, an IC50 [1, 6] of 122 nM and an IC50 [2, 7] of 45.3 nM. It also gave an IC50 [3, 8] of 10.4 nM.

With `Cc1c(C#Cc2cccnc2)sc2c1C(c1ccc(Cl)cc1)=N[C@@H](CC(=O)N1CCC(O)CC1)c1nnc(C)n1-2` [Compound 117, (S)-2-(4-(4-chlorophenyl)-3,9-dimethyl-2-(pyridin-3-ylethynyl)-6H-thieno[3,2-f][1,2,4]triazolo[4,3-a][1,4]diazepin-6-yl)-1-(4-hydroxypiperidin-1-yl)ethan-1-one] the IC50 [4, 9] was 19.8 nM, the IC50 [1, 6] was 10.4 nM and the IC50 [2, 7] was 79.6 nM. For the same compound, the IC50 [3, 8] was 6.3 nM.

With `Cc1c(C#Cc2cccnc2)sc2c1C(c1ccc(Cl)cc1)=N[C@@H](CC(=O)N1CCOCC1)c1nnc(C)n1-2` [Compound 118, (S)-2-(4-(4-chlorophenyl)-3,9-dimethyl-2-(pyridin-3-ylethynyl)-6H-thieno[3,2-f][1,2,4]triazolo[4,3-a][1,4]diazepin-6-yl)-1-morpholinoethan-1-one] the IC50 [4, 9] was 9.2 nM, the IC50 [1, 6] was 27.7 nM and the IC50 [2, 7] was 103 nM. For the same compound, the IC50 [3, 8] was 6.1 nM.

`Cc1nnc(C[C@@H]2N=C(c3ccc(Cl)cc3)c3c(sc(C#Cc4ccccn4)c3C)-n3c(C)nnc32)o1` [Compound 129, (S)-2-((4-(4-chlorophenyl)-3,9-dimethyl-2-(pyridin-2-ylethynyl)-6H-thieno[3,2-f][1,2,4]triazolo[4,3-a][1,4]diazepin-6-yl)methyl)-5-methyl-1,3,4-oxadiazole] gave an IC50 [1, 6] of 27.6 nM, an IC50 [2, 7] of 6 nM and an IC50 [3, 8] of 9.4 nM.

For `Cc1c(C#Cc2cncn2C)sc2c1C(c1ccc(Cl)cc1)=N[C@@H](CC(N)=O)c1nnc(C)n1-2` [Compound 168, (S)-2-(4-(4-chlorophenyl)-3,9-dimethyl-2-((1-methyl-1H-imidazol-5-yl)ethynyl)-6H-thieno[3,2-f][1,2,4]triazolo[4,3-a][1,4]diazepin-6-yl)acetamide], the IC50 [4, 9] was 145 nM, the concentration at 1 h [5] was 80 ng/mL and the concentration at 3 h [5] was 22 ng/mL. For the same compound, the concentration at 6 h [5] was 20 ng/mL and the IC50 [2, 7] was 716 ± 162 nM.

With `CCNC(=O)C[C@@H]1N=C(c2ccc(Cl)cc2)c2c(sc(C#Cc3cncn3C)c2C)-n2c(C)nnc21` [Compound 169, (S)-2-(4-(4-chlorophenyl)-3,9-dimethyl-2-((1-methyl-1H-imidazol-5-yl)ethynyl)-6H-thieno[3,2-f][1,2,4]triazolo[4,3-a][1,4]diazepin-6-yl)-N-ethylacetamide] the IC50 [4, 9] was 63.9 nM, the concentration at 1 h [5] was 611 ng/mL and the concentration at 3 h [5] was 29 ng/mL. It also gave a concentration at 6 h [5] of 5 ng/mL and an IC50 [2, 7] of 203 ± 57 nM.

Compound `C#Cc1sc2c(c1C)C(c1ccc(Cl)cc1)=NCc1nnc(C)n1-2` [compound 19, 4-(4-chlorophenyl)-2-ethynyl-3,9-dimethyl-6H-thieno[3,2-f][1,2,4]triazolo[4,3-a][1,4]diazepine] has an IC50 [4, 10] of 2120 nM, an IC50 [1] of 227 nM and an IC50 [3] of 191 nM.

`C#Cc1sc2c(c1C)C(c1ccc(Cl)cc1)=N[C@@H](C)c1nnc(C)n1-2` [compound 20, (S)-4-(4-chlorophenyl)-2-ethynyl-3,6,9-trimethyl-6H-thieno[3,2-f][1,2,4]triazolo[4,3-a][1,4]diazepine] showed an IC50 [4, 10] of 16 nM, an IC50 [1] of 41.1 nM and an IC50 [3] of 103 nM.
